Laboratory results published in US10391101B2, “Derivatives of 7-fluoro-8-chloro-5H-dibenzo [B,E,] [1,4] diazepine and use thereof” (VALENTEK LLC, priority 2014, dated 2019).

Legend:
[1] = Sub-chronic toxicity, morphological parameters of blood (neutrophil kinetics); format: in vivo; conditions: rats, intragastric 5 mg/kg daily for 28 days
Description: The positive effect of the introduction of fluorine has been observed in pre-clinical studies of sub-chronic toxicity. […]. Increase in the number of neutrophils has been observed among rats after administration of aminoglutethimide, which also involves a high risk of agranulocytosis (Ng, W. et. al., Chem Res Toxicol, 2013, 26, 1272-81). Thus changes in the kinetics of neutrophils after intake of the medication can serve as a biomarker to predict the risk of agranulocytosis.
The neutrophil kinetics has been studied within comparative tests of sub-chronic toxicity. Studies have been conducted using rats upon intragastric administration of the substance at a dose of 5 mg/kg. The test substances were administered daily for 28 days. Each experimental group was composed of 10 animals of each sex.

[2] = 5-oxytriptophan hyperkinesia (head twitches); format: in vivo; conditions: mice, intragastric 1.0-10.0 mg/kg, 5-oxytriptophan 300 mg/kg i.p.
Protocol: It is known that the precursor of serotonin (5-oxytriptophan, 5-OT) causes a specific hyperkinesia in mice in the form of head-twitching with average duration of 30-60 minutes, which is explained by the activation of serotonergic system of the CNS. […] Each experimental group included 10 male mice weighing 20-22 g. The test substances were administered intragastrically at 1.0, 2.5, 5.0 and 10.0 mg/kg 30 minutes before the intraperitoneal administration of 5-oxytriptophan at a dose of 300 mg/kg. We counted the number of head twitches per 1 minute at intervals of 10 minutes during 60 minutes.

[3] = cited from earlier work
[4] = Leucht et al., Lancet 2013; cited from earlier work
[5] = Sedation study, total distance traveled; conditions: CF-1 mice, oral 1, 5 and 10 mg/kg
[6] = biological target: H1 receptor (Homo sapiens, UniProt P35367); experiment: H1 histamine receptor functional experiment, antagonism set-up (Fluo-4 NW Ca2+ fluorescence); format: cell-based
Protocol: (§1) The functional activity of compounds on the H4 receptor was determined according to the change in the cell conductibility induced by redistribution of intracellular calcium. The activity for H1 receptor was determined according to the fluorescence of Fluo-4 NW indicator introduced into cells induced by the change in Ca2+ ion concentration in the cytosol.
(§2) Functional experiments were performed in the set-up of agonism and antagonism. In the set-up of agonism the test substance was added directly to the cells expressing the receptor and was determined as the dependence of the response intensity on the substance concentration. Concentration at which the half-peak response (EC50) could be reached served as a measure of activity of agonists.
(§3) In the set-up of antagonism, the ability of test substances to block the action of agonists was assessed. For this purpose, cells were incubated with the test substances, then the reference agonists were added in the system and the functional response was determined.

[7] = biological target: H4 receptor (Homo sapiens, UniProt Q9H3N8); experiment: H4 histamine receptor functional experiment, agonism set-up (cell conductibility); format: cell-based
Protocol: as §1, §2, §3

[8] = biological target: D2 dopamine receptors (Homo sapiens, UniProt P14416); experiment: cell-based; conditions: determined by IC50 values in the set-up of antagonism
Protocol: (§4) The response on cells expressing D2 receptors was determined according to the change in the cell conductibility induced by redistribution of intracellular calcium. For D4 receptor the level of second messenger—cAMP was taken as the criterion.

[9] = biological target: T1, D4 dopamine receptors (Homo sapiens, UniProt P21917); experiment: D4 dopamine receptor antagonism, Kb from IC50 (cAMP level); format: cell-based
T1 sequence (P21917 1-419): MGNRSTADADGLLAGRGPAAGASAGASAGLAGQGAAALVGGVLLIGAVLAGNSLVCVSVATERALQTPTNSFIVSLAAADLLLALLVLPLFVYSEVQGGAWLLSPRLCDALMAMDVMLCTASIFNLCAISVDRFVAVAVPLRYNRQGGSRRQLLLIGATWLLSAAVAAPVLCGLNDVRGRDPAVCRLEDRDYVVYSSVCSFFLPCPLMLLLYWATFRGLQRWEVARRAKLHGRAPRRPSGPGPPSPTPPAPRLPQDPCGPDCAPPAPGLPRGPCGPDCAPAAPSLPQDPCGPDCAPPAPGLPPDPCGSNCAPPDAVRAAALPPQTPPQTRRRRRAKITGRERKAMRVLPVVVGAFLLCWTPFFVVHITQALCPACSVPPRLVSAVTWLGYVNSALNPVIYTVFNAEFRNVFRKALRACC
Protocol: as §4

Sequence of H1 receptor (P35367 whole entry): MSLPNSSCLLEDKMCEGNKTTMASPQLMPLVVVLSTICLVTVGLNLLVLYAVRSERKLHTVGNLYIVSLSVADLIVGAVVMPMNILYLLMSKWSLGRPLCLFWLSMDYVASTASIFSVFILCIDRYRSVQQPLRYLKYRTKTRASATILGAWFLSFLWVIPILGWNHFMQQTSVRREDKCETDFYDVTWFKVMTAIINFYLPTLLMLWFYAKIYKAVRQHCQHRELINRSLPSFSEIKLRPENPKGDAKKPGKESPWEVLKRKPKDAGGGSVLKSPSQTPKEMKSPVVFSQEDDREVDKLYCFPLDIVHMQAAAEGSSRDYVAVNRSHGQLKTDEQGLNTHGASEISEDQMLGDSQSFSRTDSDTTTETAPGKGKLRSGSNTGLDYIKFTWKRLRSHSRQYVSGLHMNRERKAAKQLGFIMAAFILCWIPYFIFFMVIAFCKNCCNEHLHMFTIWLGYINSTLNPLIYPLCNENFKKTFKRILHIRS
Sequence of H4 receptor (Q9H3N8 whole entry): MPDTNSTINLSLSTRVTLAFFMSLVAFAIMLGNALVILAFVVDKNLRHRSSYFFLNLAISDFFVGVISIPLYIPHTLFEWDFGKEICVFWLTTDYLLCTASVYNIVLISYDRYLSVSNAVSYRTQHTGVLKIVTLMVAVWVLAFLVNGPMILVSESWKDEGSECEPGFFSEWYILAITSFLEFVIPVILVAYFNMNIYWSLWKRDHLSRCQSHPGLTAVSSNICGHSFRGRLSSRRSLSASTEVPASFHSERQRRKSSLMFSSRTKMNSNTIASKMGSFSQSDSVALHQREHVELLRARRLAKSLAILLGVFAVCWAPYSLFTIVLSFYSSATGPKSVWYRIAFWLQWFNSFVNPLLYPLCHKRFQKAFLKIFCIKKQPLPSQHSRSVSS
Sequence of D2 dopamine receptors (P14416 whole entry): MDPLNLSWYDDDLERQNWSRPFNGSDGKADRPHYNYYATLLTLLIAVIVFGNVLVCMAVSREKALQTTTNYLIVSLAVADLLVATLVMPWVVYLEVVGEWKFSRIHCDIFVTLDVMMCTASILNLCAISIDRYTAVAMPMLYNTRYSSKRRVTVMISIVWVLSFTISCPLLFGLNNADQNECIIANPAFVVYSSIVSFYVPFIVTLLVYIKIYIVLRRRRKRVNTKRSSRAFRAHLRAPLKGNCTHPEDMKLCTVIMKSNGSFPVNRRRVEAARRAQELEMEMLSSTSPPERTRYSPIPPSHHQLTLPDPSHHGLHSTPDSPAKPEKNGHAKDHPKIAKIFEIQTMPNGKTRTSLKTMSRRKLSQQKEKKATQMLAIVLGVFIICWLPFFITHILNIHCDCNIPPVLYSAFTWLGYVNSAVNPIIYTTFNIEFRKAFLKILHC

Work on `CN1CCN(C2=Nc3cc(Cl)ccc3Nc3ccccc32)CC1` [Clozapine, reference compound] yielded a Basophils [1] of 0.6 ± 0.3%, an ESR [1] of 3.8 ± 0.4 mm/h and an Eosinophils [1] of 1.0 ± 0.5%. The Hemoglobin [1] was 154.6 ± 1.9 g/L, the Ht [1] was 43.3 ± 0.5% and the Lymphocytes [1] was 66.6 ± 2.8%. For the same molecule, the MCH [1] was 18.4 ± 0.1 pg, the MCHC [1] was 357.4 ± 1.9 g/L and the MCV [1] was 51.6 ± 0.2 fL. It also gave a Metamyelocytes [1] of 0.0 ± 0.0%, a Monocytes [1] of 6.4 ± 0.9% and a Myelocytes [1] of 0.0 ± 0.0%. The “Number of circulating neutrophils in peripheral blood versus control group” value [1] was “significant increase in the number of circulating neutrophils”, the PLT count [1] was 617.6 ± 43.2 10^9/l and the Plasma cells [1] was 0.0 ± 0.0%. For the same molecule, the RBC count [1] was 8.39 ± 0.06 10^12/l, the Rt [1] was 80.8 ± 4.1 10^9/l and the Segmented neutrophils [1] was 21.2 ± 2.0%. For the same molecule, the Stab neutrophiles [1] was 4.6 ± 0.7 %, the WBC count [1] was 11.6 ± 1.1 10^9/l and the “Inhibition of twitches induced by 5-OT” value [2] was “most evident inhibition of twitches”. For the same molecule, the “Patients resistant to typical neuroleptics in whom positive symptoms are weakened” value ([3]; human, in vivo) was 30-60%, the “Patients with treatment-resistant schizophrenia whose condition improves” value ([3]; long-term use) was 60% and the “Increase in the risk of sedation” value [4] was 8.8 times. For the same molecule, the “Sedation: total distance traveled by animals” value [5] was “significantly reduced”.

For `Clc1ccc2c(c1)N=C(N1CCNCC1)c1ccccc1N2` [Desmethylclozapine, N-desmethylclozapine, reference compound], the IC50 [6] was 15 nM, the EC50 [7] was 2100 nM and the Kb [8] was 52 nM. For the same molecule, the Kb ([9]; determined by IC50 values in the set-up of antagonism) was 190 nM and the “Therapeutic window (Kb, D2/Kb, D4)” value ([9]; ratio of the applicant's Kb values) was 0.27.

In the case of `OCCOCCN1CCN(C2=Nc3ccccc3Sc3ccccc32)CC1` [Quetiapine, quetiapine], the “Increase in the risk of sedation” value [4] is listed as 3.7 times.
